Experimental data reported in patent publication US20050107289A1, “Anti-microbial peptides and compositions” (priority 2001, published 2005).
Non-standard residues stand in square brackets, D forms with d. Residues, ends and D or L forms follow the SMILES beside them.

What was measured:
[1] = test system: vancomycin-resistant Enterococus faecalis (VRE)(ATCC 51575); assay type: cell-based, Enterococcus faecalis; parameters: key to VRE (in vitro activity): peptide concentration in μg/ml (broth dilution assay); conditions: for In Vitro VREF MIC / VRE MIC: ATCC 51575; for VRE (in vitro activity): Table 9, media a: AM-3
Method in brief: (§1)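 Overnight bacterial cultures, diluted 4000 times to roughly 2.5×10^5 cfu/ml, are added to 2-fold peptide dilution series. Peptide series span approximately 400-2 μg/ml as prepared in DMSO/aqueous sucrose, before mixing with inoculum. Testing follows NCCLS M7-A4 broth dilution, chiefly the microdilution format.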

[2] = Toxicity studies in mice; assay type: in vivo; parameters: LD50(IP) / LD50(IV): unit not given here; conditions: for LD50(IP) / LD50(IV): Table 12, male Balb-C mice; for LD50 at 14 days: male, Balb-C, mouse, in vivo, ip, Table 13
Description: Peptides were tested for toxicity in vivo using procedures similar to those described previously. […] Mice (male Balb-C) in groups of 4-8 were given via IV, IP or SQ single bolucdoses of peptides and monitored for 14 days. Toxicity of sublethal doses was assessed based on the behavior and appearance of the mice after peptide administration compared to control mice receiving only vehicle. Signs of acute toxicity included lack of activity, red feet and tail, faster breathing. Death was defined as the end point for lethal doses of peptides.
Toxicology Studies: Initial toxicology studies in mice were conducted to evaluate various routes of drug administration, maximum tolerable dose, and blood and tissue toxicity. Two mice in each dose study were injected with a bolus intravenous (IV), intraperitoneal (IP), or subcutaneous (SQ) doses of peptide SEQ ID NO:8, 18, and 26. For each study, two control animals received vehicle only and no peptide. […] Signs of acute toxicity included any one of the following: lack of activity, red feet and tail, or faster breathing. […] A regimen of […] of peptide SEQ ID NO:18 for three consecutive days was administered to two mice IP and two mice SQ.

[3] = test system: S. aureus MRSA (ATCC 33591); test: Mouse peritonitis model, MRSA protection; assay type: in vivo, mice; parameters: PD50 MRSA: unit not given here; conditions: for PD50 MRSA: Table 12, male Balb-C mice, IP infection, IP peptide; for In Vivo MRSA PD50: Table 13; for protection of mice from MRSA infection: single bolus IP dose of appropriate amount, 45-60 min after infection; for mice survived: fourteen-day study
Description: Bacteria were prepared for in vivo using procedures similar to those as previously described. […] S. aureus MRSA bacteria (ATCC 33591) were grown at 37° C. in 5 mL of Antibiotic Medium-3 (AM-3, Difco Laboratories) with agitation for 12 hours to a stationary phase. Cells were collected by centrifugation, washed twice with saline solution and resuspended in about 10 mL of saline to an O.D.650 of 1.2. This suspension was diluted ten times in a sterilized 5% mucin (Difco) in saline to a concentration of 2-4×10^7 cfu/ml (actual inoculum size was verified by colony counts on agar plates).
Peptides of the invention were tested in mice to ascertain whether they would protect the mice against bacterial infection using procedures similar to those described in N. Frimodt-Moller et al., The Mouse Peritonitis/Sepsis Model, in Zak et al. (eds.) HANDBOOK OF ANIMAL MODELS OF INFECTION 127-37 (Academic Press 1999).
Male Balb-C mice (6 weeks old, approximately 20 g) were used in the study. Staphylococcus aureus MRSA bacteria (ATCC 33591) were grown at 37° C. with agitation for 12 hours to a stationary phase. Cells were collected by centrifugation, washed twice with saline and resuspended to an O.D.650 of 1.4. This suspension was diluted ten times with saline and resuspended to a concentration of 3-5×10^7 cfu/ml. For each peptide five groups of eight mice per group were infected I.P. with 0.5 ml of the above Staphylococcus aureus MRSA preparation (lethal dose). Forty-five minutes to an hour after infection, each group was treated with a different dose of peptide and a control group received vehicle only. Mice were monitored for fourteen days; death was defined as the end point. Median protecting doses (PD50) were calculated following the Reed and Muench method. […] For IV and SQ models peptide was administered immediately after IP infection.

[4] = test system: murine red blood cells; test: Red blood cell hemolysis; assay type: cell-based, mouse
Method in brief: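 Washed murine erythrocytes at 5% in saline with 10% FBS were exposed to serial peptide dilutions for 30 min at 37° C. Supernatant absorbance at 560 nm was read, with saline as 0% and 1% Triton X-100 as 100% hemolysis.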

[5] = test system: E. coli JM109(DE3); assay type: cell-based, Escherichia coli; conditions: JM109
Method in brief: as §1

| SMILES | In Vitro VREF MIC [1] [µg/mL] | LD50(IP) [2] | LD50(IV) [2] | LD50 at 14 days [2] [mg/kg] | PD50 S. aureus MRSA infection [3] [mg/kg] | PD50 MRSA [3] | In Vivo MRSA PD50 [3] [mg/kg] | protection of mice from MRSA infection [3] | In Vitro RBC MIC [4] [µg/mL] | E. coli MIC [5] [µg/mL] | VRE MIC [1] [µg/mL] | VRE (in vitro activity) [1] | RBC Hemolysis (HD50) [4] | further results |
| --- | --- | --- | --- | --- | --- | --- | --- | --- | --- | --- | --- | --- | --- | --- |
| CC(C)C[C@H]1NC(=O)[C@H](Cc2c[nH]c3ccccc23)NC(=O)[C@@H](CCCNC(=N)N)NC(=O)[C@H](CCC(N)=O)NC(=O)[C@@H](CCCCN)NC(=O)[C@H](Cc2c[nH]c3ccccc23)NC(=O)[C@@H](CC(C)C)NC(=O)[C@H](Cc2c[nH]c3ccccc23)NC1=O [SEQ ID NO:8, cyclo-(D-Lys-Gln-D-Arg-Trp-D-Leu-Trp-D-Leu-Trp)] (cyclo([dK]Q[dR]W[dL]W[dL]W)) | 12 | 55 | >12 | 55 | 7 | 7 | 7 | completely protect | 40 | 80 | – | – | – | signs of toxicity ([2]; mice, IP, maximum tested dose 12 mg/kg): no signs of toxicity were observed; signs of toxicity ([2]; mice, bolus IV 12 mg/kg): signs of temporary (<10 min in duration) discomfort; HD50 [4]: 10 µg/mL; reduction in hemolytic activity [4]: five-fold; Hemolysis HD50 ([4]; red cells of murine): 45 µg/mL |
| CC(C)C[C@H]1NC(=O)[C@H](Cc2c[nH]c3ccccc23)NC(=O)[C@@H](CCCCN)NC(=O)[C@H](CO)NC(=O)[C@@H](CCCCN)NC(=O)[C@H](Cc2c[nH]c3ccccc23)NC(=O)[C@@H](CC(C)C)NC(=O)[C@H](Cc2c[nH]c3ccccc23)NC1=O [SEQ ID NO:12, D-Lys-Ser-D-Lys-Trp-D-Leu-Trp-D-Leu-Trp] (cyclo([dK]S[dK]W[dL]W[dL]W)) | 15 | >400 | 70 | > 400 | 20 | 20 | 20 | completely protect | 100 | 40 | 15 | 15 | 100 | – |
| CC(C)C[C@H]1NC(=O)[C@H](Cc2c[nH]c3ccccc23)NC(=O)[C@@H](CCCCN)NC(=O)[C@H](CCCNC(=N)N)NC(=O)[C@@H](CCCNC(=N)N)NC(=O)[C@H](Cc2c[nH]c3ccccc23)NC(=O)[C@@H](CC(C)C)NC(=O)[C@H](Cc2c[nH]c3ccccc23)NC1=O [SEQ ID NO:18, cyclo-(D-Arg-Arg-D-Lys-Trp-D-Leu-Trp-D-Leu-Trp)] (cyclo([dR]R[dK]W[dL]W[dL]W)) | 5 | 60 | 16 | 60 | 8 | 8 | 8 | completely protect | 50 | 15 | 5 | 5 | 50 | physical, social and feeding activities ([2]; mice, 17.5 mg per day, three consecutive days, IP or SQ, over four days): no apparent changes in the physical, social, and feeding activities; sites of IP and SQ injections ([2]; mice, 17.5 mg per day, three days): moderate subacute inflammation; hematology, necropsy and microscopic examination ([2]; mice, 17.5 mg per day, three days, fourth day): normal blood and morphological profiles except for the sites of IP and SQ injections; signs of toxicity ([2]; mice, up to 17.5 mg/kg IP and SQ): without any apparent signs of toxicity; mice survived ([3]; 40 mg/kg bolus SQ): 75%; mice survived ([3]; 2.5×5 mg/kg IV dosage regimen): 50%; PD50 protective dose where 50% of animals survive ([3]; FIG. 6, mice challenged with lethal doses of MRSA): 5 ± 2 mg/kg |
